The results in this text go back to patent publication US20050261130A1, “Novel surfactants and formulations” (Monsanto Technology LLC, priority 2000, published 2005).

The assay has as its system Velvetleaf (ABUTH) and Japanese millet (ECHCF). Nature of the assay: Greenhouse herbicidal effectiveness, overall statements for both weeds. To be noted: summary sentence of the respective Example. The assay is classed as in vivo, Abutilon theophrasti; Echinochloa crus-galli. The text has this: The herbicidal effectiveness data set forth herein report “inhibition” as a percentage following a standard procedure in the art which reflects a visual assessment of plant mortality and growth reduction by comparison with untreated plants, made by technicians specially trained to make and record such observations. In all cases, a single technician makes all assessments of percent inhibition within any one experiment or trial. Such measurements are relied upon and regularly reported by Monsanto Company in the course of its herbicide business.
The following procedure was used for testing compositions of the Examples to determine herbicidal effectiveness, except where otherwise indicated. […]
Pots were assigned to different treatments in a fully randomized experimental design with 6 replications. A set of pots was left untreated as a reference against which effects of the treatments could later be evaluated.
Application of glyphosate compositions was made by spraying with a track sprayer fitted with a 9501 E nozzle calibrated to deliver a spray volume of 93 liters per hectare (l/ha) at a pressure of 165 kilopascals (kPa). After treatment, pots were returned to the greenhouse until ready for evaluation. […]

Regarding “(C12-14)O(CHCH3CH2)O—(CHCH3CH2)N(EO)x(EO)y x + y = 5 [Composition M121]”, the “Herbicidal effectiveness overall or on both ABUTH and ECHCF, comparison in words” value is listed as “more effective for potentiating the IPA”.
